{
  "source": "patent US11925643B2",
  "about": "“Toll-like receptor 4 (TLR4) inhibitors and use thereof” (MOR RESEARCH APPLICATIONS LTD., priority 2018, dated 2024)",
  "key": {"primary cardiomyocytes": {"system": "primary cardiomyocytes", "assay": "CK and LDH release by primary cardiomyocytes under LPS treatment (sepsis like)", "format": "cell-based, Rat", "conditions": "LPS treatment; 20 μM", "method": "Rat hearts (1-2 days old) were removed under sterile conditions and washed three times in phosphate-buffered saline (PBS) to remove excess blood cells. The hearts were minced and then gently agitated in RBD (a solution of proteolytic enzymes (Biological Institute, Ness-Ziona, Israel) prepared from fig tree extract, and diluted 1:100 in Ca^2+- and Mg^2+-free PBS) for a few cycles of 10 min each. Dulbecco's modified Eagle's medium (Biological Industries, Kibbutz Beit Haemek, Israel) containing 10% horse serum was added to supernatant suspensions containing the dissociated cells. The mixture was centrifuged at 1400 rpm for 4 min. The supernatant phase was discarded, and the cells were re-suspended. The cell suspension was diluted to 1.0×10^6 cells/ml, unless stated otherwise, and 1.5 ml of the suspension was placed in 35-mm plastic culture dishes collagen- or gelatin-coated, or on coated cover glasses. The cultures were incubated in a humidified atmosphere of 5% CO2 and 95% air at 37° C.\nPrimary cardiomyocytes which were obtained by method described above, were treated with exemplary decoy peptides described herein. After 30 minutes of incubation, sepsis like (LPS treatment for 6 hours), or myocardial infarction (MI) like (hypoxia for 3 hours) conditions were imposed to measure the release of CK and LDH to the medium and determine the potential cardioprotective effect of the tested decoy peptides. Cytotoxicity and level of cell damage were assessed by spectrophotometric measurement of lactate dehydrogenase (LDH) and creatine kinase (CK) activities (at 30° C.). Results are presented as CK and LDH release in arbitrary units (a.u.)\nActivity of LDH and CK was determined in the cell-culture medium (25 μl) transferred into 96-well plates, using commercial L-LDH/CK kits (such as those manufactured, e.g., by Sigma-Aldrich, BioVision™ or Thermo Fisher Scientific®).\nPrimary cardiomyocytes were treated with peptides and peptidomimetics of SEQ ID NOs:1-7 provided at concentrations ranging from 1 μM to 20 μM. Following 30 minutes of incubation, sepsis like (LPS treatment for 6 hours) or MI like (hypoxia for 3 hours) conditions were induced to determine the potential cardioprotective effect of the tested compounds. Creatine kinase (CK) and lactate dehydrogenase (LDH) activity were assayed to determine the level of cellular damage and cell protection effect. The experimental procedure is described in Materials and Methods above. Results are presented as CK and LDH release in arbitrary units (a.u.)."}, "TLR4": {"target": "T1, TLR4 (Mus musculus, UniProt Q9QUK6)", "T1 construct": "endogenous in cells; host or cells: primary cardiomyocytes under hypoxia", "T1 sequence (Q9QUK6 26-835)": "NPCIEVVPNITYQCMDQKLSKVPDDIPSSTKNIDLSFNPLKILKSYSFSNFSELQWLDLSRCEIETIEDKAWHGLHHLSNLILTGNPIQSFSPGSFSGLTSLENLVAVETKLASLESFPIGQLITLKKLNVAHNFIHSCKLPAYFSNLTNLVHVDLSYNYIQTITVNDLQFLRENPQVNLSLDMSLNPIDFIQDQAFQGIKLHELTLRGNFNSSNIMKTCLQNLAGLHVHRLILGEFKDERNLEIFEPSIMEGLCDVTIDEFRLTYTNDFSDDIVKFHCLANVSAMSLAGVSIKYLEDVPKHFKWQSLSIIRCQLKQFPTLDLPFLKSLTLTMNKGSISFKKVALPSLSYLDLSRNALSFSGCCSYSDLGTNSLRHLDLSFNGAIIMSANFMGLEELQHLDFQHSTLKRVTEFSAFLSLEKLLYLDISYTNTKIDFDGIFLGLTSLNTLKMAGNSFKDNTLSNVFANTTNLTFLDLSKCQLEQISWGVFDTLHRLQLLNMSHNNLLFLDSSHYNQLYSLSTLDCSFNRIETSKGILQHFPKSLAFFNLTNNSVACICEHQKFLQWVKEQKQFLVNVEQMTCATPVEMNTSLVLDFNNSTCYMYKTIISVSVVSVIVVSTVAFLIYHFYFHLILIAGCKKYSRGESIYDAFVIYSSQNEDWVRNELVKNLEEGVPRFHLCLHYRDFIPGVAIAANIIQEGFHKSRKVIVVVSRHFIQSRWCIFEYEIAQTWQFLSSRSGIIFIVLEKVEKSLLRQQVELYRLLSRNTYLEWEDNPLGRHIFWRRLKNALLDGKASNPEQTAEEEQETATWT", "assay": "TLR4 protein level by Western blot in hypoxic cardiomyocytes", "format": "cell-based", "conditions": "20 μM, hypoxic conditions", "method": "Frozen tissue/cell cultures of liver or heart were pulverized under liquid nitrogen and placed in a homogenization buffer ([…] phosphate buffer, […] sucrose, […] EDTA, […] phenylmethylsulfonyl fluoride (PMSF), and 0.1% vol/vol tergitol, pH 7.5). Myocytes from cell cultures were homogenized in lysis buffer.\nHomogenates were centrifuged at 12K rpm for 10 minutes at 4° C., the supernatant was isolated, and protein levels were visualized by immunoblotting with antibodies. Briefly, proteins (60 μg/sample) were separated using SDS-PAGE gel (12%-15%) under denaturing conditions and electro-transferred (blotted) onto nitrocellulose (Bio-Rad) for 1 hour at 100 V. Membranes were blocked with 5% nonfat milk in Tris-buffered saline with 0.1% Tween® 20 (TBST) for 1 hour at room temperature. Primary antibodies were used at a 1:200-1:1000 concentration in TBST with 5% nonfat milk overnight at 4° C. Immunodetection of β-actin/GPDH was performed as an internal control. Dye 800/680 secondary antibodies were added at a concentration of 1:15000 for 1 hour at room temperature (LI-COR® Biosciences, NE, USA). Detection was carried out with LI-CORE® Odyssey® imaging system. Quantification of signals was carried out with the Odyssey® program. […]"}},
  "note": "Residues, ends and D or L forms follow the SMILES beside them.",
  "data": [
    {"smiles": "CC[C@H](C)[C@H](NC(C)=O)C(=O)N[C@H](C(=O)N[C@@H](Cc1ccccc1)C(=O)N[C@@H](C)C(N)=O)C(C)C", "note": "[SEQ ID NO:1, (2S,3S)-2-acetamido-N-((S)-1-(((S)-1-(((S)-1-amino-1-oxopropan-2-yl)amino)-1-oxo-3-phenylpropan-2-yl)amino)-3-methyl-1-oxobutan-2-yl)-3-methylpentanamide] (Ac-IVFA-NH2)", "values": [
      {"measurement": "CK release", "setting": "primary cardiomyocytes", "result": "subnormal levels"},
      {"measurement": "LDH release", "setting": "primary cardiomyocytes", "result": "subnormal levels"},
      {"measurement": "decrease of TLR4 protein expression relative to PM6", "setting": "TLR4; positive control", "result": "same extent"}
    ]},
    {"smiles": "CCCCCCCCNc1nc(=O)n(Cc2ccccc2)cc1C", "note": "[PM6, 1-benzyl-5-methyl-4-(octylamino)pyrimidin-2(1H)-one]", "values": [
      {"measurement": "CK release", "setting": "primary cardiomyocytes", "result": "no significant effect"},
      {"measurement": "LDH release", "setting": "primary cardiomyocytes", "result": "no significant effect"},
      {"measurement": "decrease of TLR4 protein expression", "setting": "TLR4", "result": 7.6, "unit": "fold"}
    ]}
  ]
}
